Measured values reported in ChEMBL document CHEMBL4219245, “Development of piperazine-based hydroxamic acid inhibitors against falcilysin, an essential malarial protease” (Bioorg Med Chem Lett, 2018).

Tests used:
Falcilysin = target: T1, Falcilysin (Plasmodium falciparum (isolate 3D7), UniProt Q76NL8); test: Inhibition of Plasmodium falciparum 3D7 FLN (55 to 1193 residues) expressed in Escherichia coli BL21 using Dabcyl-HKRHSFRMRG-EDANS as substrate preincubated for 5 mins followed by substrate addition measured for 10 mins by fluorescence assay
T1 sequence (Q76NL8 whole entry): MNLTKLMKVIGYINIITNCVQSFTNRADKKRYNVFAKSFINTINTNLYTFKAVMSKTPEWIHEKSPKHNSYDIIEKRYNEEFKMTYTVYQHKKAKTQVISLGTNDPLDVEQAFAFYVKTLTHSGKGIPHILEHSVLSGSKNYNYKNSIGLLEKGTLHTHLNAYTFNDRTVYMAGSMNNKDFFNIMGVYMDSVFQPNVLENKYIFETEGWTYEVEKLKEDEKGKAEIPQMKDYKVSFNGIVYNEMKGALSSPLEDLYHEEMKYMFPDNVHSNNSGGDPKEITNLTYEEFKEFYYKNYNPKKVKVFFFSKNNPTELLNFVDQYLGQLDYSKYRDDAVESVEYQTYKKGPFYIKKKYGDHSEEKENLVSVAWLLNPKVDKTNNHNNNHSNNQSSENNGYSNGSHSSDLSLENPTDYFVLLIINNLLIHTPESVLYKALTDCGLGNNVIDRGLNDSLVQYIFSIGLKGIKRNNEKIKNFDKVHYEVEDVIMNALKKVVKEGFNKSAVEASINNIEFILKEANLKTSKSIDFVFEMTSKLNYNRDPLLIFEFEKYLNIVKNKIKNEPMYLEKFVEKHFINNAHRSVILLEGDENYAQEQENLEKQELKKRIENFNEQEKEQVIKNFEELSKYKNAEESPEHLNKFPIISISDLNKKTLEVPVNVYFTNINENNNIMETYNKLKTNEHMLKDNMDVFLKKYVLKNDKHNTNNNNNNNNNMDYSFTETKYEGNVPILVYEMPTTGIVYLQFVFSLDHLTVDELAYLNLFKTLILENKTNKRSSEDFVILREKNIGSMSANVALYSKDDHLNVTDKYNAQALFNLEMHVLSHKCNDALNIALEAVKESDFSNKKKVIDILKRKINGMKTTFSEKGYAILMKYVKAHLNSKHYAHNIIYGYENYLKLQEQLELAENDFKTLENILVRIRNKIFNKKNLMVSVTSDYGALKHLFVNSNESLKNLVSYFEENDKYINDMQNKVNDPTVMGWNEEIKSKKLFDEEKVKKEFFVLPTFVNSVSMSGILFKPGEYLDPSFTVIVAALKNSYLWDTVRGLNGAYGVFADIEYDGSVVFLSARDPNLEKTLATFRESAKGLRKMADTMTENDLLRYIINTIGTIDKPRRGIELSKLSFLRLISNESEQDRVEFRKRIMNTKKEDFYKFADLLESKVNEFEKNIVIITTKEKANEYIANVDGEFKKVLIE

Plasmodium falciparum = test: Parasiticidal activity against ring stage Plasmodium falciparum 3D7 infected in human RBC after 70 to 80 hrs by acridine orange staining-based assay; type: functional, organism-based; settings: 3D7, Erythrocyte

SMILES	IC50 (Falcilysin) [µM]	IC50 (Plasmodium falciparum) [µM]
COc1ccc(S(=O)(=O)N2CCN(C(=O)c3ccc(-c4ccccc4)cc3)CC2C(=O)NO)cc1 (configuration not stated)	10	5
COc1ccc(S(=O)(=O)N2CCN(C(=O)c3ccccc3)CC2C(=O)NO)cc1 (configuration not stated)	> 50	> 10
COc1ccc(S(=O)(=O)N2CCN(C(=O)c3ccc(Br)cc3)CC2C(=O)NO)cc1 (configuration not stated)	14	> 10
O=C(NO)C1CN(C(=O)c2ccccc2)CCN1S(=O)(=O)c1ccc(Br)cc1 (configuration not stated)	35	> 10
O=C(NO)C1CN(C(=O)c2ccc(-c3ccccc3)cc2)CCN1S(=O)(=O)c1ccc(Br)cc1 (configuration not stated)	1.4	1.4
O=C(NO)C1CN(C(=O)c2ccc(F)cc2)CCN1S(=O)(=O)c1ccc(Br)cc1 (configuration not stated)	16	> 10
CCCCN1CCN(S(=O)(=O)c2ccccc2)C(C(=O)NO)C1 (configuration not stated)	> 50	> 10
O=C(NO)C1CN(C(=O)c2ccc(F)cc2)CCN1S(=O)(=O)c1ccccc1 (configuration not stated)	> 50	> 10
O=C(NO)C1CN(C(=O)c2cccc(F)c2)CCN1S(=O)(=O)c1ccccc1 (configuration not stated)	> 50	> 10
O=C(NO)C1CN(CCCO)CCN1S(=O)(=O)c1ccccc1 (configuration not stated)	> 50	> 10
O=C(NO)C1CN(C(=O)c2ccc(Cl)c(Cl)c2)CCN1S(=O)(=O)c1ccccc1 (configuration not stated)	5	> 10
O=C(NO)C1CN(C(=O)c2ccccc2)CCN1S(=O)(=O)c1ccccc1 (configuration not stated)	40	> 10
O=C(NO)C1CN(C(=O)c2ccc(-c3ccccc3)cc2)CCN1S(=O)(=O)c1ccccc1 (configuration not stated)	8	> 10
O=C(NO)C1CN(C(=O)c2ccccc2Br)CCN1S(=O)(=O)c1ccccc1 (configuration not stated)	7	> 10
COc1ccc(S(=O)(=O)N2CCN(C(=O)c3cccc(Br)c3)CC2C(=O)NO)cc1 (configuration not stated)	10	> 10
O=C(NO)C1CN(C(=O)c2ccc(Br)cc2)CCN1S(=O)(=O)c1ccccc1 (configuration not stated)	13	> 10
CCC(=O)N1CCN(S(=O)(=O)c2ccc(Br)cc2)C(C(=O)NO)C1 (configuration not stated)	> 50	> 10
COc1ccc(S(=O)(=O)N2CCN(C(=O)c3ccc(Cl)c(Cl)c3)CC2C(=O)NO)cc1 (configuration not stated)	6	> 10
COc1ccc(S(=O)(=O)N2CCN(C(=O)c3ccccc3Br)CC2C(=O)NO)cc1 (configuration not stated)	8	> 10
COc1ccc(S(=O)(=O)N2CCN(S(=O)(=O)c3ccccc3)CC2C(=O)NO)cc1 (configuration not stated)	> 50	> 10
O=C(NO)C1CN(C(=O)c2cccc(F)c2)CCN1S(=O)(=O)c1ccc(Br)cc1 (configuration not stated)	31	> 10
